Test results as given in patent US10611731B2, “5-methyl-6-phenyl-4,5-dihydro-2H-pyridazin-3-one derivative” (OTSUKA PHARMACEUTICAL CO., LTD., priority 2016, dated 2020).

Test system: human childhood brain tumor cell lines (PFSK-1)
Experiment: Growth inhibitory activity against PFSK-1 cells (WST-8, Cell Counting Kit-8)
Assay type: cell-based
Conditions: Homo sapiens, 72 h, 3 days incubation with test compound, WST-8 OD 450/630 nm, read-out: IC50 (concentration inhibiting 50% of the cell growth)
Experimental: The growth inhibitory activity against human childhood brain tumor cell lines (PFSK-1) was measured with WST-8 reagent [2-(2-methoxy-4-nitrophenyl)-3-(4-nitrophenyl)-5-(2,4-disulfophenyl)-2H-tetrazolium monosodium salt, Cell Counting Kit-8™], according to the method described in Tominaga, H. et al., Anal. Commun., 1999, 36, 47-50. Briefly, PFSK-1 was seeded in 96-well microplate at 100 μL/well with Roswell Park Memorial Institute (RPMI) 1640 medium containing 10% fetal bovine serum (FBS), and the cells were incubated in the presence of 5% carbon dioxide (CO2) at 37° C. for 24 hours. 50 μL of each test compound diluted with the medium was added to each well, and then the cells were incubated further for 3 days. After the incubation, 15 μL of Cell Counting Kit-8™ was added to each well, and the cells were incubated for one and half hours. Then, optical density (OD) values at measurement wavelength 450 nm and reference wavelength 630 nm were measured and the difference thereof was calculated. From the calculated difference, the OD value difference (at measurement wavelength 450 nm and reference wavelength 630 nm) of the control well which includes no cell was subtracted to afford cell-growth activity in each well.
The cell growth inhibitory activity of each test compound was calculated by comparing the cell-growth activity with each test compound to the cell-growth activity without any test compound (control), and each IC50 (nM) which is the concentration inhibiting 50% of the cell growth was calculated.

Compound | IC50 [nM]
Cc1c(OCC(F)(F)CO)ccc(C2=NNC(=O)CC2C)c1O (stereo not drawn) [Example 115, 6-[4-(2,2-difluoro-3-hydroxypropoxy)-2-hydroxy-3-methylphenyl]-5-methyl-4,5-dihydro-2H-pyridazin-3-one] | 5.9
CCC(O)COc1ccc(C2=NNC(=O)CC2C)c(O)c1Cl (stereo not drawn) [Example 163, 6-[3-Chloro-2-hydroxy-4-(2-hydroxybutoxy)phenyl]-5-methyl-4,5-dihydro-2H-pyridazin-3-one] | 5.2
Cc1c(F)c(C2=NNC(=O)CC2C)cc(Cl)c1OCC(F)(F)CO (stereo not drawn) [Example 158, 6-[5-Chloro-4-(2,2-difluoro-3-hydroxypropoxy)-2-fluoro-3-methylphenyl]-5-methyl-4,5-dihydro-2H-pyridazin-3-one] | 4.3
Cc1cc(C2=NNC(=O)CC2C)cc(F)c1OCCCO (stereo not drawn) [Example 20, 6-[3-Fluoro-4-(3-hydroxypropoxy)-5-methylphenyl]-5-methyl-4,5-dihydro-2H-pyridazin-3-one] | 4.2
Cc1cc(C2=NNC(=O)CC2C)cc(Cl)c1OCCCCO (stereo not drawn) [Example 79, 6-[3-Chloro-4-(4-hydroxybutoxy)-5-methylphenyl]-5-methyl-4,5-dihydro-2H-pyridazin-3-one] | 5.6
Cc1c(OCC(C)(C)CO)ccc(C2=NNC(=O)CC2C)c1F (stereo not drawn) [Example 8, 6-[2-Fluoro-4-(3-hydroxy-2,2-dimethylpropoxy)-3-methylphenyl]-5-methyl-4,5-dihydro-2H-pyridazin-3-one] | 7.9
CC1CC(=O)NN=C1c1ccc(OCC(C)(C)CO)c(F)c1F (stereo not drawn) [Example 9, 6-[2,3-Difluoro-4-(3-hydroxy-2,2-dimethylpropoxy)phenyl]-5-methyl-4,5-dihydro-2H-pyridazin-3-one] | 4.2
Cc1c(OCC2(O)CC2)ccc(C2=NNC(=O)CC2C)c1O (stereo not drawn) [Example 166, 6-{2-Hydroxy-4-[(1-hydroxycyclopropyl)methoxy]-3-methylphenyl}-5-methyl-4,5-dihydro-2H-pyridazin-3-one] | 4.7
Cc1cc(C2=NNC(=O)CC2C)c(O)c(Cl)c1OCC(C)O (stereo not drawn) [Example 164, 6-[3-Chloro-2-hydroxy-4-(2-hydroxypropoxy)-5-methylphenyl]-5-methyl-4,5-dihydro-2H-pyridazin-3-one] | 4.9
CCc1c(OCC(C)(C)O)ccc(C2=NNC(=O)CC2C)c1F (stereo not drawn) [Example 134, 6-[3-Ethyl-2-fluoro-4-(2-hydroxy-2-methylpropoxy)phenyl]-5-methyl-4,5-dihydro-2H-pyridazin-3-one] | 7.1
Cc1c(OCCCO)ccc(C2=NNC(=O)C[C@H]2C)c1O [Example 178, (5R)-(−)-6-[2-hydroxy-4-(3-hydroxypropoxy)-3-methylphenyl]-5-methyl-4,5-dihydro-2H-pyridazin-3-one] | 4.6
Cc1cc(C2=NNC(=O)CC2C)cc(Cl)c1OCCC(C)O (stereo not drawn) [Example 143, 6-[3-Chloro-4-(3-hydroxybutoxy)-5-methylphenyl]-5-methyl-4,5-dihydro-2H-pyridazin-3-one] | 6.9
CC1CC(=O)NN=C1c1cc(F)c(OCC(C)(C)CCO)c(Cl)c1 (stereo not drawn) [Example 99, 6-[3-chloro-5-fluoro-4-(4-hydroxy-2,2-dimethylbutoxy)phenyl]-5-methyl-4,5-dihydro-2H-pyridazin-3-one] | < 1
Cc1cc(C2=NNC(=O)CC2C)cc(F)c1OCC(C)O (stereo not drawn) [Example 56, 6-[3-Fluoro-4-(2-hydroxypropoxy)-5-methylphenyl]-5-methyl-4,5-dihydro-2H-pyridazin-3-one] | 7.6
C=Cc1c(OCCO)ccc(C2=NNC(=O)CC2C)c1F (stereo not drawn) [Example 135, 6-[2-Fluoro-4-(2-hydroxyethoxy)-3-vinylphenyl]-5-methyl-4,5-dihydro-2H-pyridazin-3-one] | 6.8
Cc1cc(C2=NNC(=O)CC2C)cc(C)c1OCCCO (stereo not drawn) [Example 14, 6-[4-(3-Hydroxypropoxy)-3,5-dimethylphenyl]-5-methyl-4,5-dihydro-2H-pyridazin-3-one] | 8
CC1CC(=O)NN=C1c1ccc(OCC(F)(F)CO)c(Cl)c1O (stereo not drawn) [Example 162, 6-[3-Chloro-4-(2,2-difluoro-3-hydroxypropoxy)-2-hydroxyphenyl]-5-methyl-4,5-dihydro-2H-pyridazin-3-one] | 6.4
CC1CC(=O)NN=C1c1ccc(OCC2(O)CC2)c(Cl)c1O (stereo not drawn) [Example 174, 6-{3-Chloro-2-hydroxy-4-[(1-hydroxycyclopropyl)methoxy]phenyl}-5-methyl-4,5-dihydro-2H-pyridazin-3-one] | 4.2
CCc1c(OCCCCO)ccc(C2=NNC(=O)CC2C)c1F (stereo not drawn) [Example 97, 6-[3-Ethyl-2-fluoro-4-(4-hydroxybutoxy)phenyl]-5-methyl-4,5-dihydro-2H-pyridazin-3-one] | 8.6
Cc1c(O)c(C2=NNC(=O)CC2C)cc(Cl)c1OCC(C)(C)O (stereo not drawn) [Example 130, 6-[5-Chloro-2-hydroxy-4-(2-hydroxy-2-methylpropoxy)-3-methylphenyl]-5-methyl-4,5-dihydro-2H-pyridazin-3-one] | 7

Second part, the molecule after the results:

IC50 [nM] | Compound
1.9 | Cc1cc(C2=NNC(=O)CC2C)c(F)c(C)c1OCC(F)(F)CO (stereo not drawn) [Example 160, 6-[4-(2,2-Difluoro-3-hydroxypropoxy)-2-fluoro-3,5-dimethylphenyl]-5-methyl-4,5-dihydro-2H-pyridazin-3-one]
< 1 | Cc1cc(C2=NNC(=O)CC2C)c(F)c(Cl)c1OCC(C)(C)CO (stereo not drawn) [Example 137, 6-[3-chloro-2-fluoro-4-(3-hydroxy-2,2-dimethylpropoxy)-5-methylphenyl]-5-methyl-4,5-dihydro-2H-pyridazin-3-one]
4.1 | Cc1cc(C2=NNC(=O)CC2C)c(O)c(Cl)c1OCC1(O)CC1 (stereo not drawn) [Example 175, 6-{3-Chloro-2-hydroxy-4-[(1-hydroxycyclopropyl)methoxy]-5-methylphenyl}-5-methyl-4,5-dihydro-2H-pyridazin-3-one]
3 | CC1CC(=O)NN=C1c1cc(F)c(OCC(F)(F)CO)c(Cl)c1 (stereo not drawn) [Example 111, 6-[3-Chloro-4-(2,2-difluoro-3-hydroxypropoxy)-5-fluorophenyl]-5-methyl-4,5-dihydro-2H-pyridazin-3-one]
0.9 | Cc1cc(C2=NNC(=O)CC2C)cc(Cl)c1OCC(C)(C)CO (stereo not drawn) [Example 72, 6-[3-chloro-4-(3-hydroxy-2,2-dimethylpropoxy)-5-methylphenyl]-5-methyl-4,5-dihydro-2H-pyridazin-3-one]
1.9 | CC1CC(=O)NN=C1c1ccc(OCCCO)c(Br)c1F (stereo not drawn) [Example 12, 6-[3-bromo-2-fluoro-4-(3-hydroxypropoxy)phenyl]-5-methyl-4,5-dihydro-2H-pyridazin-3-one]
1 | CC1CC(=O)NN=C1c1cc(F)c(OCC(C)(C)O)c(Cl)c1F (stereo not drawn) [Example 131, 6-[3-chloro-2,5-difluoro-4-(2-hydroxy-2-methylpropoxy)phenyl]-5-methyl-4,5-dihydro-2H-pyridazin-3-one]
3.7 | Cc1cc(C2=NNC(=O)CC2C)c(F)c(C)c1OC/C=C\CO (stereo not drawn) [Example 150, 6-{2-Fluoro-4-[(Z)-4-hydroxy-2-butenyloxy]-3,5-dimethylphenyl}-5-methyl-4,5-dihydro-2H-pyridazin-3-one]
4 | Cc1cc(C2=NNC(=O)CC2C)cc(C)c1OCC(C)(C)O (stereo not drawn) [Example 32, 6-[4-(2-Hydroxy-2-methylpropoxy)-3,5-dimethylphenyl]-5-methyl-4,5-dihydro-2H-pyridazin-3-one]
1.2 | CC1CC(=O)NN=C1c1cc(F)c(OCC(C)(C)CO)c(Br)c1 (stereo not drawn) [Example 69, 6-[3-bromo-5-fluoro-4-(3-hydroxy-2,2-dimethylpropoxy)phenyl]-5-methyl-4,5-dihydro-2H-pyridazin-3-one]
0.5 | CC(O)COc1ccc(C2=NNC(=O)CC2C)c(F)c1Cl (stereo not drawn) [Example 54, 6-[3-chloro-2-fluoro-4-(2-hydroxypropoxy)phenyl]-5-methyl-4,5-dihydro-2H-pyridazin-3-one]
3.9 | Cc1c(OCC2(O)CC2)ccc(C2=NNC(=O)CC2C)c1F (stereo not drawn) [Example 46, 6-{2-Fluoro-4-[(1-hydroxycyclopropyl)methoxy]-3-methylphenyl}-5-methyl-4,5-dihydro-2H-pyridazin-3-one]
4.1 | C[C@@H]1CC(=O)NN=C1c1ccc(OCC(C)(C)CO)c(Cl)c1F [Example 122, (5R)-(−)-6-[3-Chloro-2-fluoro-4-(3-hydroxy-2,2-dimethylpropoxy)phenyl]-5-methyl-4,5-dihydro-2H-pyridazin-3-one]
3.3 | C=Cc1c(OCC(F)(F)CO)ccc(C2=NNC(=O)CC2C)c1F (stereo not drawn) [Example 114, 6-[4-(2,2-Difluoro-3-hydroxypropoxy)-2-fluoro-3-vinylphenyl]-5-methyl-4,5-dihydro-2H-pyridazin-3-one]
1 | Cc1cc(C2=NNC(=O)CC2C)cc(Cl)c1OCC1(O)CC1 (stereo not drawn) [Example 44, 6-{3-chloro-4-[(1-hydroxycyclopropyl)methoxy]-5-methylphenyl}-5-methyl-4,5-dihydro-2H-pyridazin-3-one]
3 | CC1CC(=O)NN=C1c1cc(F)c(OC/C=C\CO)c(Cl)c1 (stereo not drawn) [Example 94, 6-{3-Chloro-5-fluoro-4-[(Z)-4-hydroxy-2-butenyloxy]phenyl}-5-methyl-4,5-dihydro-2H-pyridazin-3-one]
